Laboratory results from ChEMBL document CHEMBL4414614, “Phthalideisoquinoline Hemiacetal Alkaloids from Corydalis decumbens That Inhibit Spontaneous Calcium Oscillations, Including Alkyl Derivatives of (+)-Egenine That Are Strikingly Levorotatory” (J Nat Prod, 2019).
pIC50: −log10 of the molar value.

How the values were obtained:
Format in all cases: functional
[1] = (§1) Inhibition of neuronal excitability in C57BL/6 mouse Neocortical neurons assessed as reduction in spontaneous calcium oscillation amplitude measured for 10 mins by Fluo-4 staining based FLIPR assay; details: C57BL/6, 10 min
Mus musculus [2] = organism: Mus musculus; test: as §1
[3] = (§2) Inhibition of neuronal excitability in C57BL/6 mouse Neocortical neurons assessed as effect on spontaneous calcium oscillation frequency measured for 10 mins by Fluo-4 staining based FLIPR assay; details: C57BL/6, 10 min
Mus musculus [4] = organism: Mus musculus; test: as §2

Row | SMILES | pIC50 [1] | inhibition (Mus musculus [2]) | pIC50 [3] | inhibition (Mus musculus [4])
1 | CO[C@H]1O[C@@H]([C@@H]2c3cc4c(cc3CCN2C)OCO4)c2ccc3c(c21)OCO3 | 5.17 | Dose-dependent effect | 5.17 | Dose-dependent effect
2 | COc1cc2c(cc1OC)[C@@H]([C@@H]1O[C@H](O)c3c1ccc1c3OCO1)N(C)CC2 | 4.94 | Dose-dependent effect | 4.94 | Dose-dependent effect
3 | CCO[C@@H]1O[C@@H]([C@@H]2c3cc(OC)c(OC)cc3CCN2C)c2ccc3c(c21)OCO3 | 4.99 | Dose-dependent effect | 4.99 | Dose-dependent effect
4 | CO[C@@H]1O[C@@H]([C@@H]2c3cc4c(cc3CCN2C)OCO4)c2ccc3c(c21)OCO3 | 5.25 | Dose-dependent effect | 5.25 | Dose-dependent effect
5 | CCO[C@@H]1O[C@@H]([C@@H]2c3cc4c(cc3CCN2C)OCO4)c2ccc3c(c21)OCO3 | 5.51 | Dose-dependent effect | 5.51 | Dose-dependent effect
6 | CCO[C@H]1O[C@@H]([C@@H]2c3cc4c(cc3CCN2C)OCO4)c2ccc3c(c21)OCO3 | 5.08 | Dose-dependent effect | 5.08 | Dose-dependent effect
